Assay results as given in patent US12599560B2, “Lipids and lipid nanoparticle formulations” (Longuide Biopharma Corporation, priority 2023, dated 2026).

Key:
[1] = test system: mice; assay: In vivo delivery of FLuc-mRNA lipid nanoparticle preparations in mice (IVIS imaging); parameters: In vivo IVIS / In vivo IVIS (liver) / In vivo IVIS (spleen): unit not given here
Experimental: 7. In Vivo Delivery of the Nucleic Acid Lipid Nanoparticle Preparations in Mice After the preparation was completed, the preparation was injected intramuscularly (mice rectus femoris muscle of the thigh) or intravenously (mice tail vein), with approximately 75 μL per mouse, for a total of 3 mice. After a certain time of injection, in vivo imaging (PerkinElmer, IVIS Lumina III) was performed. 10-15 minutes before imaging, 200 μL of 15 mg/mL D-Luciferin working solution was injected intraperitoneally, and the imaging analysis was performed using an in vivo imager.

[2] = Particle size and PDI by dynamic light scattering; type: physicochemical
Experimental: The 7.5 μL nucleic acid lipid nanoparticle solution (containing approximately 0.04 mg/mL mRNA) was taken and added with 200 μL ultrapure water, mixed by gentle blowing using a pipette tip, and the particle size of the nanopreparation was detected by dynamic lightscattering (DLS) using a Malvern Dynamic Light Scattering Instrument (Malvern Instruments Ltd., ZEN3700, UK). 27.5 μL nucleic acid lipid nanoparticle solution (containing about 0.04 mg/mL mRNA) was taken and added with 200 μL ultrapure water. A pipette tip was used to gently blow the sample and mix well. The particle size of the nanopreparation was detected by Malvern Dynamic Light Scattering Instrument (Malvern Instruments Ltd., ZEN3700, UK). After the detection, the sample was recovered to an EP tube, and 600 μL of ultrapure water was added, gently blown with a pipette tip, and the potential of the nanopreparation was measured by a Malvern particle size meter.

[3] = Table 4, molar ratio 1.40:11.15:38.95:48.50, N/P 28, IM formulation
[4] = Table 4, molar ratio 2.50:11.50:51.00:35.00, N/P 32, IV formulation
[5] = Table 2, IV, whole body scan, molar ratio DMG-PEG2000:DSPC:Chol:Lipid and N/P
[6] = Table 2, LNP formulation with mRNA
[7] = Table 4, molar ratio 1.40:11.15:38.95:48.50, N/P 40, IM formulation
[8] = Table 4, molar ratio 1.50:16.00:34.00:48.50, N/P 55, IV formulation
[9] = Table 2, LNP formulation with mRNA, molar ratio 1.40:11.15:38.95:48.50, N/P 30
[10] = Table 2, polydispersity value, molar ratio 1.40:11.15:38.95:48.50, N/P 30

Row | Compound | In vivo IVIS ([1]; Table 4, IM) | In vivo IVIS ([1]; Table 4, IV) | In vivo IVIS ([1]; Table 2, IM, whole body scan) | In vivo IVIS [1, 5] | Particle size (nm) [2, 6] [nm] | PDI ([2]; Table 2, polydispersity value) | PDI ([2]; Table 4) | Particle size (nm) ([2]; Table 4) | also measured
1 | CCCCCCCCCCCCCCOC(=O)C(O)CN(CCCN1CCN(CCCN(CC(O)C(=O)OCCCCCCCCCCCCCC)CC(O)C(=O)OCCCCCCCCCCCCCC)CC1)CC(O)C(=O)OCCCCCCCCCCCCCC (centres unmarked) [Compound L0228] | 8.22 × 10^6 | 9.28 × 10^9 |  |  |  |  |  |  | PDI [2, 3]: 0.18 ± 0.01; Particle size (nm) [2, 3]: 140.50 ± 1.21 nm; PDI [2, 4]: 0.13 ± 0.01; Particle size (nm) [2, 4]: 120.07 ± 0.60 nm
2 | CCCCCCCCCCNC(=O)C(O)CN1CCN(CCN(CC(O)C(=O)NCCCCCCCCCC)CC(O)C(=O)NCCCCCCCCCC)CC1 (centres unmarked) [Compound L0180] |  |  | 1.10 × 10^7 | 3.15 × 10^6 |  |  |  |  | Particle size (nm) ([2]; Table 2, LNP formulation with mRNA, molar ratio 1.09:8.66:30.25:60.00, N/P 21): 84.26 ± 0.81 nm; Particle size (nm) ([2]; Table 2, LNP formulation with mRNA, molar ratio 1.40:11.15:38.95:48.50, N/P 21): 86.34 ± 1.35 nm; PDI ([2]; Table 2, polydispersity value, molar ratio 1.09:8.66:30.25:60.00, N/P 21): 0.13 ± 0.01; PDI ([2]; Table 2, polydispersity value, molar ratio 1.40:11.15:38.95:48.50, N/P 21): 0.18 ± 0.01
3 | CCCCCCCCCCCCNC(=O)C(O)CN(CCCN1CCN(CCCN(CC(O)C(=O)NCCCCCCCCCCCC)CC(O)C(=O)NCCCCCCCCCCCC)CC1)CC(O)C(=O)NCCCCCCCCCCCC (centres unmarked) [Compound L0190] |  |  | 1.19 × 10^6 |  | 121.87 ± 2.71 | 0.20 ± 0.01 |  |  | 
4 | CCCCCCCCCCCCOC(=O)CCN(CCC(=O)OCCCCCCCCCCCC)CCN(CCC(=O)OCCCCCCCCCCCC)CCN1CCN(CCN(CCC(=O)OCCCCCCCCCCCC)CCC(=O)OCCCCCCCCCCCC)CC1 [L0199-Control, reference compound] | 5.84 × 10^6 | 2.12 × 10^7 |  |  |  |  |  |  | delivery efficiency, times lower than the hydroxy compound (L0191 or L0199) ([1]; IM administration): slightly lower; delivery efficiency, times lower than the hydroxy compound (L0191 or L0199) ([1]; IV administration): about 44 times; PDI [2, 7]: 0.17 ± 0.02; Particle size (nm) [2, 7]: 133.43 ± 1.86 nm; PDI [2, 8]: 0.16 ± 0.03; Particle size (nm) [2, 8]: 144.33 ± 0.31 nm
5 | CCCCCCCCCCNC(=O)C(O)CN(CC(O)C(=O)NCCCCCCCCCC)[C@H]1CC[C@@H](N(CC(O)C(=O)NCCCCCCCCCC)CC(O)C(=O)NCCCCCCCCCC)CC1 (some centres unmarked) [Compound L0216] | 3.58 × 10^5 | 2.18 × 10^5 |  |  |  |  | 0.08 ± 0.02 | 117.97 ± 1.91 | 
6 | CC/C=C\CCOCOCCCCCCOC(=O)C(O)CN(CCCN1CCN(CCCN(CC(O)C(=O)OCCCCCCOCOCC/C=C\CC)CC(O)C(=O)OCCCCCCOCOCC/C=C\CC)CC1)CC(O)C(=O)OCCCCCCOCOCC/C=C\CC (centres unmarked) [Compound L0225] | 3.13 × 10^8 | 2.15 × 10^9 |  |  |  |  | 0.10 ± 0.01 | 117.87 ± 1.55 | 
7 | CCCCCCCC/C=C\CCCCCCCCNC(=O)C(O)CN(CCCN1CCN(CCCN(CC(O)C(=O)NCCCCCCCC/C=C\CCCCCCCC)CC(O)C(=O)NCCCCCCCC/C=C\CCCCCCCC)CC1)CC(O)C(=O)NCCCCCCCC/C=C\CCCCCCCC (centres unmarked) [Compound L0229] | 5.61 × 10^6 | 2.46 × 10^8 |  |  |  |  | 0.10 ± 0.02 | 179.07 ± 0.38 | 
8 | CC/C=C\CCOCOCCCCCCOC(=O)C(O)CN1CCN(CCN(CC(O)C(=O)OCCCCCCOCOCC/C=C\CC)CC(O)C(=O)OCCCCCCOCOCC/C=C\CC)CC1 (centres unmarked) [Compound L0221] | 1.85 × 10^5 | 3.94 × 10^5 |  |  |  |  | 0.07 ± 0.02 | 140.97 ± 1.48 | 
9 | CCCCCCCCCCCCNC(=O)C(O)CN(CC(O)C(=O)NCCCCCCCCCCCC)[C@H]1CC[C@@H](N(CC(O)C(=O)NCCCCCCCCCCCC)CC(O)C(=O)NCCCCCCCCCCCC)CC1 (some centres unmarked) [Compound L0213] | 2.36 × 10^5 | 3.64 × 10^5 |  |  |  |  | 0.18 ± 0.01 | 174.43 ± 1.85 | 
10 | CCCCCCCCCCOC(=O)C(O)CN1CCN(CCN(CC(O)C(=O)OCCCCCCCCCC)CC(O)C(=O)OCCCCCCCCCC)CC1 (centres unmarked) [Compound L0182] |  |  | 3.25 × 10^7 | 4.99 × 10^6 |  |  |  |  | Particle size (nm) ([2]; Table 2, LNP formulation with mRNA, molar ratio 1.09:8.66:30.25:60.00, N/P 30): 89.38 ± 0.09 nm; Particle size (nm) [2, 9]: 83.26 ± 0.68 nm; PDI ([2]; Table 2, polydispersity value, molar ratio 1.09:8.66:30.25:60.00, N/P 30): 0.16 ± 0.01; PDI [2, 10]: 0.14 ± 0.01
11 | CC/C=C\CCOCOCCCCCCOC(=O)C(O)CN(CCN1CCN(CCN(CC(O)C(=O)OCCCCCCOCOCC/C=C\CC)CC(O)C(=O)OCCCCCCOCOCC/C=C\CC)CC1)CCN(CC(O)C(=O)OCCCCCCOCOCC/C=C\CC)CC(O)C(=O)OCCCCCCOCOCC/C=C\CC (centres unmarked) [Compound L0201] |  |  | 2.18 × 10^6 | 4.46 × 10^6 | 119.70 ± 0.61 | 0.07 ± 0.01 |  |  | In vivo IVIS (liver) ([1]; Table 2, IV): 5.29 × 10^8; In vivo IVIS (spleen) ([1]; Table 2, IV): 7.89 × 10^7; in vivo delivery efficiency as compared to the benchmark compound SM102 ([1]; certain formulations, Table 2): superior in vivo delivery efficiency
12 | CCCCCCCCCCCCNC(=O)C(O)CN1CCN(CCN(CC(O)C(=O)NCCCCCCCCCCCC)CC(O)C(=O)NCCCCCCCCCCCC)CC1 (centres unmarked) [Compound L0181] |  |  | 3.37 × 10^6 |  | 71.39 ± 0.26 | 0.16 ± 0.02 |  |  | 
13 | CCCCCCCCC(CCCCCC)C(=O)OCCCCCCOC(=O)C(O)CN1CCN(CCN(CC(O)C(=O)OCCCCCCOC(=O)C(CCCCCC)CCCCCCCC)CC(O)C(=O)OCCCCCCOC(=O)C(CCCCCC)CCCCCCCC)CC1 (centres unmarked) [Compound L0188] |  |  | 1.87 × 10^7 | 1.61 × 10^8 | 97.72 ± 1.19 | 0.22 ± 0.02 |  |  | In vivo IVIS (liver) ([1]; Table 2, IV): 4.17 × 10^7; In vivo IVIS (spleen) ([1]; Table 2, IV): 4.65 × 10^7
14 | CCCCCCCCCCSSCCOC(=O)C(O)CN1CCN(CCN(CC(O)C(=O)OCCSSCCCCCCCCCC)CC(O)C(=O)OCCSSCCCCCCCCCC)CC1 (centres unmarked) [Compound L0185] |  |  | 2.52 × 10^7 | 2.72 × 10^6 |  |  |  |  | Particle size (nm) ([2]; Table 2, LNP formulation with mRNA, molar ratio 0.95:7.58:26.47:65.00, N/P 30): 94.35 ± 0.52 nm; Particle size (nm) [2, 9]: 84.46 ± 1.39 nm; PDI ([2]; Table 2, polydispersity value, molar ratio 0.95:7.58:26.47:65.00, N/P 30): 0.13 ± 0.02; PDI [2, 10]: 0.20 ± 0.00
15 | CCCCCCCCCCNC(=O)C(O)CN(CCCN1CCN(CCCN(CC(O)C(=O)NCCCCCCCCCC)CC(O)C(=O)NCCCCCCCCCC)CC1)CC(O)C(=O)NCCCCCCCCCC (centres unmarked) [Compound L0189] |  |  | 2.16 × 10^6 | 3.12 × 10^7 |  |  |  |  | Particle size (nm) ([2]; Table 2, LNP formulation with mRNA, molar ratio 1.09:8.66:30.25:60.00, N/P 20): 106.80 ± 0.85 nm; Particle size (nm) ([2]; Table 2, LNP formulation with mRNA, molar ratio 1.40:11.15:38.95:48.50, N/P 10): 85.92 ± 0.69 nm; PDI ([2]; Table 2, polydispersity value, molar ratio 1.09:8.66:30.25:60.00, N/P 20): 0.06 ± 0.04; PDI ([2]; Table 2, polydispersity value, molar ratio 1.40:11.15:38.95:48.50, N/P 10): 0.07 ± 0.02
16 | CCCCCCCCC(CCCCCC)C(=O)OCCCCCCOC(=O)C(O)CN(CCCN1CCN(CCCN(CC(O)C(=O)OCCCCCCOC(=O)C(CCCCCC)CCCCCCCC)CC(O)C(=O)OCCCCCCOC(=O)C(CCCCCC)CCCCCCCC)CC1)CC(O)C(=O)OCCCCCCOC(=O)C(CCCCCC)CCCCCCCC (centres unmarked) [Compound L0197] |  |  | 3.81 × 10^6 | 5.97 × 10^8 | 102.47 ± 0.25 | 0.13 ± 0.02 |  |  | In vivo IVIS (liver) ([1]; Table 2, IV): 2.34 × 10^6; In vivo IVIS (spleen) ([1]; Table 2, IV): 7.26 × 10^7
